Data from patent publication US20120289501A1, “Benzene-fused 6-membered oxygen-containing heterocyclic derivatives of bicyclic heteroaryls” (NOVARTIS AG, priority 2009, published 2012).

Target: IGF1R (Homo sapiens, UniProt P08069)
Experiment: Cellular IGF-1R assay: inhibition of IGF1R phosphorylation in transduced Hek293 cells, capture ELISA (MSD)
Assay type: cell-based
Design: Hek293 cells transduced with the corresponding receptors; expressed in transfected cells; host or cells: Hek293 (Hek293-IGF1R)
Outline: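 Serum-starved Hek293 cells transduced with IGF1R or InsR were pre-incubated 1 h with 3-fold dilutions from 10 μM (0.1% DMSO), then stimulated 10 min with 1.0 ng/μL IGF or 5.0 ng/μL insulin. pTyr1135/1136 (pINSR Tyr1150/1151) was read by MSD capture ELISA, normalised to stimulated vs unstimulated window; IC50 from 4-parameter fit.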

Sequence of IGF1R (P08069 31-1367): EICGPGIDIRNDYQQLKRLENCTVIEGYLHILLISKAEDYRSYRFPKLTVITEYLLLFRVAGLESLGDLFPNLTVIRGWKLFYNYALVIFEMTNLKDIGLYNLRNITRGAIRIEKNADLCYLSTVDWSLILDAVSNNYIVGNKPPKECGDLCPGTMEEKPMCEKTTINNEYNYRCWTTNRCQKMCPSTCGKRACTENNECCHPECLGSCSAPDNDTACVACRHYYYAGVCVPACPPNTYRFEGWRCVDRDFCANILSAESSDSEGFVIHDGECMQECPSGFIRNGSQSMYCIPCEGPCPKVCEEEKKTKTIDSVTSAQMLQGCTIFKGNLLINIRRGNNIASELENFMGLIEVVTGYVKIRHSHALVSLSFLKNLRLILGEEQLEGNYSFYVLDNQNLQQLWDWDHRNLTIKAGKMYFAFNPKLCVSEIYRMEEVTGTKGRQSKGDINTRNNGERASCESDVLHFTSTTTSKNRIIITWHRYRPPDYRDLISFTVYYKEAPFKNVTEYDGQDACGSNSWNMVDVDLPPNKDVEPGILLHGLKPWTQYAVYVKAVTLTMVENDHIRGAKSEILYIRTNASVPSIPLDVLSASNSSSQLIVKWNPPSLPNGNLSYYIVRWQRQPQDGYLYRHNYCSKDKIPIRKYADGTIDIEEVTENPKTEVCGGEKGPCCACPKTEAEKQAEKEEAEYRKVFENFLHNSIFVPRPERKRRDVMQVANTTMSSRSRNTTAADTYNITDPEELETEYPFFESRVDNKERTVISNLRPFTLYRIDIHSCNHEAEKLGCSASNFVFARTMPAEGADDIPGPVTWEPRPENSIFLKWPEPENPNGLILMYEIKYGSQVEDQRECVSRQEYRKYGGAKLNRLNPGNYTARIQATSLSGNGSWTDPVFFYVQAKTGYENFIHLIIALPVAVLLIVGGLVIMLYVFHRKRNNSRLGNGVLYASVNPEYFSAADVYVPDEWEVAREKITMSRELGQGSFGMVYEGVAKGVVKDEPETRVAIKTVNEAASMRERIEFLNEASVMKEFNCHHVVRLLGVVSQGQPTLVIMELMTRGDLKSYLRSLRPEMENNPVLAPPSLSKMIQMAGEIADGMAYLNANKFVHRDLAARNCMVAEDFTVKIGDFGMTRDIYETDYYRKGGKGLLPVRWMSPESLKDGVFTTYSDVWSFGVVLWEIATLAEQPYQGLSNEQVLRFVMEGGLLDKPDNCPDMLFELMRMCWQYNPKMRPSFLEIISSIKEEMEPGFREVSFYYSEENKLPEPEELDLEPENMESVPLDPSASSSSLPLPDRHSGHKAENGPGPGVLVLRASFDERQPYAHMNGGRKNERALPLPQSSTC

| SMILES | IC50 [nM] |
| --- | --- |
| Nc1ncnc2c1c(-c1ccc3c(c1)OC(c1ccccc1)CC3)cn2C1CC(O)(CO)C1 (single isomer, unassigned) [Example 26] | 27 to 106 |
| CC(=O)NC[C@H]1C[C@@H](n2cc(-c3ccc4c(c3)OC(c3ccccc3)CC4)c3c(N)ncnc32)C1 (mixture of isomers) [Example 16, (R,S)—N-{cis-3-[4-Amino-5-(2-phenyl-chroman-7-yl)-pyrrolo[2,3-d]pyrimidin-7-yl]-cyclobutylmethyl}-acetamide] | 22 |
| Nc1ncnc2c1c(-c1ccc3c(c1)OC(c1ccccc1)C=C3)cn2[C@H]1C[C@@H](CN2CCS(=O)(=O)CC2)C1 (mixture of isomers) [Example 21, (R,S)-7-[cis-3-(1,1-Dioxo-1-thiomorpholin-4-ylmethyl)-cyclobutyl]-5-(2-phenyl-2H-chromen-7-yl)-7H-pyrrolo[2,3-d]pyrimidin-4-ylamine] | 9 |
| CC(=O)N1CCN([C@H]2C[C@@H](n3cc(-c4ccc5c(c4)OC(c4ccccc4)CC5)c4c(N)ncnc43)C2)CC1 (relative stereo) [Example 38, 1-(4-{cis-3-[4-Amino-5-(2-phenyl-chroman-7-yl)-pyrrolo[2,3-d]pyrimidin-7-yl]-cyclobutyl}-piperazin-1-yl)-ethanone] | 11 |
